Assay results taken from PubChem BioAssay (NCI).
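Following 48 hours of exposure in 96-well plates, responses at five concentrations were used to interpolate endpoints linearly. Here, GI50 denotes the concentration required for 50% inhibition of growth. At the TGI there is no net growth.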

How the values were obtained:
Test in all cases: inhibition of tumour cell growth, NCI panel, 48 h
[1] = tested on: OVCAR-3 ovarian
[2] = tested on: SNB-19 CNS
[3] = tested on: SK-MEL-28 melanoma
[4] = tested on: K-562 leukemia
[5] = tested on: COLO 205 colon
[6] = tested on: SK-MEL-5 melanoma
[7] = tested on: OVCAR-5 ovarian
[8] = tested on: ACHN renal
[9] = tested on: OVCAR-4 ovarian
[10] = tested on: OVCAR-8 ovarian

Structure (SMILES)	GI50 [1] [µM]	TGI [1] [µM]	GI50 [2] [µM]	TGI [2] [µM]	GI50 [3] [µM]	TGI [3] [µM]	GI50 [4] [µM]	TGI [4] [µM]	GI50 [5] [µM]	TGI [5] [µM]	GI50 [6] [µM]	TGI [6] [µM]	GI50 [7] [µM]	TGI [7] [µM]	GI50 [8] [µM]	TGI [8] [µM]	GI50 [9] [µM]	TGI [9] [µM]	GI50 [10] [µM]	TGI [10] [µM]
Cn1nccc1Nc1nccc(-c2cc3c(s2)C(C)(C)N(CCN2CCOCC2)C3=O)n1	27.2	> 100	41.9	> 100	0.348	> 100	11.7	> 100	0.159	> 100	1.31	58	0.498	> 100	9.53	> 100	24	> 100	24.3	> 100
CC1(C)COC(C23C4C5C2C2C3C4C52I)=N1 (stereo not drawn)	–	> 100	–	> 100	–	> 100	–	> 100	–	> 100	–	> 100	–	> 100	–	> 100	–	> 100	–	> 100
CCCN(CCCCC(NC(C)=O)C(=O)NCc1ccccc1)C(=O)N(C)N=O (stereo not drawn)	–	> 100	–	> 100	–	> 100	–	> 100	–	> 100	–	> 100	–	> 100	–	> 100	–	> 100	–	> 100
COc1ccc2c(c1)c(=O)c1ccccc1n2/C=C/C(=O)O	–	> 100	–	> 100	–	> 100	–	> 100	–	> 100	–	> 100	–	> 100	–	> 100	–	> 100	–	> 100
C/C=C(\C)C(=O)N[C@H]1CC[C@]2(C)C3CC[C@@]4(C)C(CC[C@@H]4C(C)N(C)C)C3CCC2[C@H]1OC(C)=O (stereo partly drawn)	1.59	4.34	2.1	4.13	1.59	3.24	0.524	2.17	1.59	3.06	1.05	2.3	2.06	5.65	1.98	4.2	2.43	14.6	3.38	> 25.8
COc1cc(/C=C2\[C@H]3c4c(c(OC)c(C)c(OC)c4OC)C[C@@H](C(=O)N2Cc2ccccc2)N3C(=O)OCC(C)C)c(OC)c(C)c1OC	–	> 100	–	> 100	–	> 100	–	> 100	–	> 100	–	> 100	–	> 100	–	> 100	–	> 100	–	> 100
COC(=O)/C=C1/CCC2[C@@H](C(=O)CC3[C@]2(C)CCC[C@@]3(C)C(=O)OC)C1C (stereo partly drawn)	–	20.4	–	33.4	–	26.8	–	14.2	–	18.1	–	20.8	–	39.4	–	24.2	–	21.6	–	34.9
CCCN(CCC)C(=O)C1=Cc2ccc(-c3ccc(C(=O)N4CCCC4)cc3)cc2N=C(N)C1	8.19	26.2	18.8	> 100	8.91	24.8	4.45	26.9	4.26	16.3	2.91	10.9	20.1	64.9	8.13	50.9	9.45	69.5	16.1	68.5
CC1CC2(C)ON=C(c3ccccc3)N2c2ccccc2S1 (stereo not drawn)	94.1	–	53.9	–	76.7	–	16.3	43	22.6	56.2	16.9	32.1	34.3	–	32.8	–	88	–	37.3	–
CN(C)CCNC(=O)c1cc2ccccc2c2nc3ccccc3nc12	–	6.35	–	8.2	–	2.96	–	1.96	–	> 100	–	5.5	–	5.64	–	2.1	–	2.34	–	> 20.4
COc1cccc(C2c3cc4c(cc3OC(C)(O)C2C)OCO4)c1O (stereo not drawn)	–	8.48	–	> 100	–	> 100	–	36.9	–	6.15	–	16.9	–	> 100	–	79.1	–	> 96.1	–	40.9
Cn1ccnc1C(=O)/C=C/c1ccc(C(=O)Nc2ccc(Cl)cc2)cc1	0.91	3.16	0.987	> 33.3	3.7	9.89	0.646	> 33.3	1.03	> 33.3	2.35	7.04	1.1	5.64	0.62	1.24	0.981	> 33.3	1.01	> 33.3
COc1ccc2c(c1)C(=O)/C(=C/c1cccc(OCC(=O)Nc3nc4c(s3)CCCC4)c1)O2	0.304	0.865	13.9	30.4	1.58	3.22	1	> 23	0.729	2.02	6.08	19.4	1.69	3.61	1.47	2.79	2.57	8.52	1.3	8.71
O=C(Nc1ccccc1O)c1cccc(NC2=C(Cl)C(=O)N(Cc3ccccc3)C2=O)c1	2.62	7.85	13.9	37.5	7.23	20.5	2.15	9.06	13.2	40	6.66	14.4	13.4	27.7	4.73	15.7	10.3	45.4	2.06	4.7
